According to patent US12559474B2, “Triazine derivatives having virus replication inhibitory activity and pharmaceutical composition comprising the same” (priority 2021, dated 2026):
pEC50, pIC50: −log10 of the molar value. Where two headings read alike, the source gives them in different places.

How the values were obtained:
SARS-CoV-2 = assay: microbe, parasite or virus in culture; type: cell-based; settings: Severe acute respiratory syndrome coronavirus 2, VeroE6/TMPRSS2, 72 h, 50% SARS-CoV-2 infected cell death inhibitory concentration, VeroE6/TMPRSS2 cells, 3 days culture
SARS-CoV-2 3CL protease = SARS-CoV-2 3CL protease (Severe acute respiratory syndrome coronavirus 2, UniProt P0DTD1); assay: biochemical; settings: 50% SARS-CoV-2 3CL protease inhibitory concentration, read-out: IC50

SMILES | pEC50 (SARS-CoV-2; class symbols) | pIC50 (SARS-CoV-2 3CL protease; given as class symbols) | pEC50 (SARS-CoV-2; CellTiter-Glo 2.0) | pIC50 (SARS-CoV-2 3CL protease; RapidFire MS)
Cc1cncc(-n2c(=O)nc(Nc3cc4cn(CC(F)F)nc4cc3F)n(Cc3cc(F)c(F)c(Cl)c3)c2=O)c1 [II-0058] | > 6.00 | > 7.00 |  | 
Cn1cnc(Cn2c(=O)nc(Nc3cc4oc(N)nc4cc3Cl)n(Cc3cc(Cl)c(F)cc3F)c2=O)n1 [II-0056] | 5.00 to 6.00 | > 7.00 |  | 
Cc1cncc(-n2c(=O)nc(Nc3ccc4nc(NCC(F)(F)F)sc4c3)n(Cc3ccc(F)c(C#N)c3)c2=O)c1 [II-0298] | 5.00 to 6.00 | > 7.00 |  | 
COc1ccc(Nc2nc(=O)n(Cc3ccc[nH]c3=O)c(=O)n2Cc2cc(F)c(F)c(Cl)c2)c(Cl)c1 [Compound I-0255] | > 6.00 | > 7.00 |  | 
O=c1[nH]cc(F)cc1Cn1c(=O)nc(Nc2cc3c(cc2Cl)OCC3)n(Cc2cc(F)c(F)c(F)c2)c1=O [Compound I-0272] | > 6.00 | > 7.00 |  | 
Cc1ccc(C#N)cc1Cn1c(Nc2ccc3nn(C)cc3c2)nc(=O)n(-c2cncc(Cl)c2)c1=O [II-0347] |  |  | 6.72 | 8.15
Cc1nc(Cn2cc3cc(Nc4nc(=O)n(Cc5ccc[nH]c5=O)c(=O)n4Cc4cc(F)c(F)c(F)c4)c(Cl)cc3n2)no1 [II-0344] | 5.00 to 6.00 | > 7.00 |  | 
Cn1cc2cc(Nc3nc(=O)n(-c4cncc(Cl)c4)c(=O)n3Cc3cc(F)c(F)c(F)c3)ccc2n1 [II-0609] |  |  | 5.69 | 6.92
N#Cc1cc(Cn2c(Nc3cc4cn(CC(F)F)nc4cc3F)nc(=O)n(-c3cncc(Cl)c3)c2=O)ccc1F [II-0513] | > 6.00 | > 7.00 |  | 
CNc1ccnc(Cn2c(=O)nc(Nc3cc4cn(C)nc4cc3Cl)n(Cc3cc(F)c(F)cc3F)c2=O)n1 [II-0253] | 5.00 to 6.00 | > 7.00 |  | 
Cc1cncc(-n2c(=O)nc(Nc3cc4cn(CC(F)F)nc4cc3F)n(Cc3cc(F)c(F)c(C#N)c3)c2=O)c1 [II-0506] | > 6.00 | > 7.00 |  | 
Cn1cnc(Cn2c(=O)nc(Nc3cc4cn(C)nc4cc3Cl)n(Cc3cc(F)c(F)c(C#N)c3)c2=O)n1 [II-0184] | 5.00 to 6.00 | > 7.00 |  | 
CNc1nc2ccc(Nc3nc(=O)n(Cc4ccc[nH]c4=O)c(=O)n3Cc3cc(F)c(F)c(F)c3)cc2s1 [Compound I-0460] | 5.00 to 6.00 | > 7.00 |  | 
O=C1CCC(Nc2nc(=O)n(Cc3ccc[nH]c3=O)c(=O)n2Cc2cc(F)c(F)c(F)c2)CN1 (racemic) [Compound I-0133] | > 6.00 | 5.00 to 6.00 |  | 5.47
Cn1cc2cc(Nc3nc(=O)n(-c4cncc5ccccc45)c(=O)n3Cc3cc(F)c(F)c(C#N)c3)ccc2n1 [II-0154] | > 6.00 | > 7.00 |  | 
Cc1cncc(-n2c(=O)nc(Nc3cc4cn(CCO)nc4cc3Cl)n(Cc3cc(F)c(F)cc3F)c2=O)c1 [II-0337] | > 6.00 | > 7.00 |  | 
Cn1cc2cc(Nc3nc(=O)n(-c4cncc(C#N)c4)c(=O)n3Cc3ccc(F)c(C#N)c3)c(Cl)cc2n1 [II-0486] | 5.00 to 6.00 | > 7.00 |  | 
CCn1cc2cc(Nc3nc(=O)n(-c4cncc(C)c4)c(=O)n3Cc3cc(C#N)c(F)cc3C)ccc2n1 [II-0335] |  |  | 6.62 | 8.49
Cn1cnc(Cn2c(=O)nc(Nc3cc4cn(CC5(NC(=O)OC(C)(C)C)CC5)nc4cc3Cl)n(Cc3cc(Cl)c(F)cc3F)c2=O)n1 [II-0562] | 5.00 to 6.00 | > 7.00 |  | 
Cc1nc2cc(Cl)c(Nc3nc(=O)n(Cc4cc5ccsc5[nH]c4=O)c(=O)n3Cc3cc(F)c(F)c(F)c3)cc2n1C [Compound I-0390] | 5.00 to 6.00 | > 7.00 | 5.50 | 8.40
Cc1cncc(-n2c(=O)nc(Nc3cc4cn(C[C@H](C)O)nc4cc3Cl)n(Cc3cc(F)c(F)c(F)c3)c2=O)c1 [II-0101] | > 6.00 | > 7.00 |  | 
Cn1cnc(Cn2c(=O)nc(N3CCc4ccccc4CC3)n(Cc3cc(F)c(F)c(F)c3)c2=O)n1 [II-0550] |  |  | 5.19 | 5.96
Cc1cncc(-n2c(=O)nc(Nc3ccc4nn(CC(F)(F)F)cc4c3)n(Cc3ccc(F)c(C#N)c3)c2=O)c1 [II-0567] |  |  | 6.19 | 8.06
N#Cc1cc(Cn2c(Nc3cc4c(cc3Cl)OCC4)nc(=O)n(Cc3cc(Cl)c[nH]c3=O)c2=O)ccc1F [Compound I-0408] | 5.00 to 6.00 | > 7.00 |  | 

SMILES | pEC50 (SARS-CoV-2; class symbols) | pIC50 (SARS-CoV-2 3CL protease; given as class symbols) | pEC50 (SARS-CoV-2; CellTiter-Glo 2.0) | pIC50 (SARS-CoV-2 3CL protease; RapidFire MS)
COc1ccc(Nc2nc(=O)n(Cc3cc4ccccc4[nH]c3=O)c(=O)n2Cc2cc(F)c(F)c(F)c2)cc1 [Compound I-0306] | 5.00 to 6.00 | > 7.00 |  | 
Cc1cncc(-n2c(=O)nc(Nc3cc4cn(C)nc4cc3Cl)n(Cc3cc(C#N)ccc3Cl)c2=O)c1 [II-0579] |  |  | 7.17 | 8.68
CNc1nc2ccc(Nc3nc(=O)n(Cc4cc(Cl)c[nH]c4=O)c(=O)n3Cc3cc(F)c(F)c(F)c3)cc2s1 [II-0041] | 5.00 to 6.00 | > 7.00 |  | 
Cc1cncc(-n2c(=O)nc(Nc3cc4cn(C)nc4cc3Cl)n(Cc3ccc(F)c(F)c3F)c2=O)c1 [II-0175] | > 6.00 | > 7.00 |  | 
Cn1cc2cc(Nc3nc(=O)n(-c4cncc(C5CC5)c4)c(=O)n3Cc3ccc(F)c(C#N)c3)ccc2n1 [II-0388] | > 6.00 | > 7.00 |  | 
O=c1nc(Nc2cc3cn(CCO)nc3cc2Cl)n(Cc2cc(F)c(F)cc2F)c(=O)n1Cc1ccccn1 [II-0249] | 5.00 to 6.00 | > 7.00 |  | 
Cc1cncc(-n2c(=O)nc(Nc3cc4cn(C)nc4cc3Cl)n(Cc3cc(F)c(F)cc3OCC(F)(F)F)c2=O)c1 [II-0435] | 5.00 to 6.00 | > 7.00 |  | 
Cc1cncc(-n2c(=O)nc(Nc3cc4c(cc3Cl)nc(C)n4C)n(Cc3cc(F)c(F)c(F)c3)c2=O)c1 [II-0356] | 5.00 to 6.00 | > 7.00 |  | 
Cc1nc2ccc(Nc3nc(=O)n(-c4cncc5ccccc45)c(=O)n3Cc3ccc(F)c(C#N)c3)cc2o1 [II-0176] | > 6.00 | > 7.00 |  | 
COc1ccc(Nc2nc(=O)n(Cc3cscn3)c(=O)n2Cc2cc(F)c(F)c(F)c2)cc1 [II-0258] |  |  | 5.10 | 6.02
COc1ccc(Nc2nc(=O)n(-c3cncc(C)c3)c(=O)n2Cc2cc(F)c(F)c(F)c2)cc1 [Compound I-0374] | 5.00 to 6.00 | > 7.00 |  | 
CN(C)C(=O)c1ccc(Cn2c(=O)nc(Nc3cc4cn(CC(F)F)nc4cc3Cl)n(Cc3cc(F)c(F)c(F)c3)c2=O)c(=O)[nH]1 [Compound I-0066] | 5.00 to 6.00 | > 7.00 |  | 
COC(=O)Nc1nc2cc(Cl)c(Nc3nc(=O)n(-c4cncc(C)c4)c(=O)n3Cc3cc(Cl)c(F)cn3)cc2s1 [II-0079] | > 6.00 | > 7.00 |  | 
O=c1[nH]cccc1Cn1c(=O)nc(NC2CCS(=O)(=O)CC2)n(Cc2cc(F)c(F)c(F)c2)c1=O [Compound I-0038] | > 6.00 | 5.00 to 6.00 |  | 5.89
Cc1c2cc(Nc3nc(=O)n(Cc4ncn(C)n4)c(=O)n3Cc3cc(F)c(F)cc3F)c(Cl)cc2nn1C [II-0450] | 5.00 to 6.00 | > 7.00 |  | 
COc1ccc(Nc2nc(=O)n(-c3cncc4ccccc34)c(=O)n2Cc2ccc(F)c(C#N)c2)c(F)c1 [II-0178] | > 6.00 | > 7.00 |  | 
Cn1cc2cc(Nc3nc(=O)n(-c4cncc(Cl)c4)c(=O)n3Cc3cc(F)c(F)cc3F)c(F)cc2n1 [II-0475] | 5.00 to 6.00 | > 7.00 |  | 
Cn1cnc(Cn2c(=O)nc(Nc3cc4cn(C)nc4cc3Cl)n(Cc3ccc(F)c(Br)c3)c2=O)n1 [II-0179] | 5.00 to 6.00 | > 7.00 |  | 
O=c1[nH]cccc1Cn1c(=O)nc(-c2ccccc2)n(Cc2cc(F)c(F)c(F)c2)c1=O [Compound I-0329] |  |  | 5.29 | 5.70
CCNC(=O)Cn1c(=O)nc(Nc2cc3cn(C)nc3cc2Cl)n(Cc2cc(F)c(F)c(F)c2)c1=O [II-0329] |  |  | 4.94 | 6.85
Cc1cncc(-n2c(=O)nc(Nc3cc4cn(CC(F)(F)F)nc4cc3Cl)n(Cc3cc(F)c(F)c(F)c3)c2=O)c1 [II-0564] | > 6.00 | > 7.00 |  | 
Cc1nc2cc(Cl)c(Nc3nc(=O)n(Cc4ccc[nH]c4=O)c(=O)n3Cc3cc(F)c(F)c(F)c3)cc2n1CC(F)F [Compound I-0444] | 5.00 to 6.00 | > 7.00 | 5.40 | 8.29
CCn1cc2cc(Nc3nc(=O)n(Cc4ncn(C)n4)c(=O)n3Cc3cc(F)c(F)cc3F)c(Cl)cc2n1 [II-0548] |  |  | 6.27 | 7.85
Cc1cncc(-n2c(=O)nc(Nc3cc4cn(C)nc4cc3Cl)n(Cc3cc(Cl)c(F)c(Cl)c3)c2=O)c1 [II-0588] | > 6.00 | > 7.00 |  | 
